Laboratory results reported in ChEMBL document CHEMBL1201862, “PubChem BioAssay data set” (2004).
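Tested at 5 concentrations; 48 h exposure; 96-well plates; endpoints linearly interpolated, else capped at highest concentration. At the GI50, growth is halved.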 Calls of active or inactive are those of the source. Rule as the data show it: active = GI50 up to about 1.1 µM and inactive = higher.

Key:
Assay in all cases: NCI anticancer screen, dose series, 48 h
A498 = system: A498
HCC 2998 = system: HCC 2998
HOP-62 = system: HOP-62
Hs-578T = system: Hs-578T
IGROV-1 = system: IGROV-1
KM12 = system: KM12
LOX IMVI = system: LOX IMVI
M14 = system: M14
MCF7 = system: MCF7
NCI-H226 = system: NCI-H226
RPMI-8226 = system: RPMI-8226
SF-268 = system: SF-268
SF-539 = system: SF-539
SK-MEL-2 = system: SK-MEL-2
SNB-19 = system: SNB-19
T47D = system: T47D
U-251 = system: U-251
UACC-62 = system: UACC-62

Structure (SMILES) | GI50 (A498) | GI50 (HCC 2998) | GI50 (HOP-62) | GI50 (Hs-578T) | GI50 (IGROV-1) | GI50 (KM12) | GI50 (LOX IMVI) | GI50 (M14) | GI50 (MCF7) | GI50 (NCI-H226) | GI50 (RPMI-8226) | GI50 (SF-268) | GI50 (SF-539) | GI50 (SK-MEL-2) | GI50 (SNB-19) | GI50 (T47D) | GI50 (U-251) | GI50 (UACC-62)
OCCN(C1=NCCN1)/[N+](=C/c1ccccc1O)[CH-]c1ccccc1O | > 100 µM (inactive) | > 100 µM (inactive) | > 100 µM (inactive) | > 100 µM (inactive) | > 100 µM (inactive) | > 100 µM (inactive) | > 100 µM (inactive) | > 100 µM (inactive) | > 100 µM (inactive) | 28.6 µM (inactive) | > 100 µM (inactive) | > 100 µM (inactive) | > 100 µM (inactive) | > 100 µM (inactive) | > 100 µM (inactive) | > 100 µM (inactive) | > 100 µM (inactive) | > 100 µM (inactive)
OCc1ccc2c(c1)CC1(C2)Cc2cc3c(cc2C1)CCC3 | 5.86 µM (inactive) | 6.12 µM (inactive) | 4.7 µM (inactive) | 4.02 µM (inactive) | 7.87 µM (inactive) | 1.9 µM (inactive) | 3.66 µM (inactive) | 3.27 µM (inactive) | 2.5 µM (inactive) | 22.4 µM (inactive) | 2.76 µM (inactive) | 17.5 µM (inactive) | 3.57 µM (inactive) | 3.75 µM (inactive) | 4.89 µM (inactive) | 4.82 µM (inactive) | 2.99 µM (inactive) | 6.53 µM (inactive)
OC1(c2ccccc2)CC2CCC(C1)N2CCc1ccccc1 (stereo not drawn) | 19 µM (inactive) | 58.3 µM (inactive) | 45.4 µM (inactive) | 5.27 µM (inactive) | 86.3 µM (inactive) | 57.9 µM (inactive) | 54.7 µM (inactive) | 35.6 µM (inactive) | 28.6 µM (inactive) | 61 µM (inactive) | 30.3 µM (inactive) | > 100 µM (inactive) | 81.8 µM (inactive) | > 100 µM (inactive) | 93.1 µM (inactive) | 45 µM (inactive) | > 100 µM (inactive) | 80.4 µM (inactive)
CC(C)c1c(P(=O)(c2ccccc2)c2ccccc2)n(C)c2ccccc12 | > 100 µM (inactive) | > 100 µM (inactive) | > 100 µM (inactive) | > 100 µM (inactive) | – | 51.8 µM (inactive) | > 100 µM (inactive) | 64.4 µM (inactive) | > 100 µM (inactive) | 52.8 µM (inactive) | 56.6 µM (inactive) | 51.9 µM (inactive) | > 100 µM (inactive) | 88.3 µM (inactive) | 95.9 µM (inactive) | 77.1 µM (inactive) | 97.3 µM (inactive) | –
COC(=O)c1ccc(C)cc1CC1Cc2ccc(C)cc2C1=O (stereo not drawn) | 1.53 µM (inactive) | 10.1 µM (inactive) | 22 µM (inactive) | 15 µM (inactive) | 7.87 µM (inactive) | 4.27 µM (inactive) | 5.25 µM (inactive) | 5.7 µM (inactive) | 4.39 µM (inactive) | 6.04 µM (inactive) | 7.91 µM (inactive) | 12.2 µM (inactive) | 5.6 µM (inactive) | 11.9 µM (inactive) | 6.24 µM (inactive) | 5.55 µM (inactive) | 4.07 µM (inactive) | 9.53 µM (inactive)
Cc1ccc(/N=C2N=C(Cl)/C(=C\c3ccccc3)N\2)cc1 | > 100 µM (inactive) | 12.2 µM (inactive) | > 100 µM (inactive) | > 100 µM (inactive) | > 100 µM (inactive) | > 22.6 µM (inactive) | 3.76 µM (inactive) | > 100 µM (inactive) | > 100 µM (inactive) | > 100 µM (inactive) | 5.11 µM (inactive) | > 100 µM (inactive) | > 100 µM (inactive) | > 100 µM (inactive) | > 100 µM (inactive) | 88.7 µM (inactive) | > 100 µM (inactive) | 4.26 µM (inactive)
CCCCn1c2c(n(CCCC)c1=S)-c1c(n(CCCC)c(=S)n1CCCC)S[Se][Se]S2 | 38.7 µM (inactive) | 23.6 µM (inactive) | 8.83 µM (inactive) | 5.25 µM (inactive) | 2.42 µM (inactive) | 18.7 µM (inactive) | 6.05 µM (inactive) | 8.59 µM (inactive) | 6.64 µM (inactive) | 14.6 µM (inactive) | 2.49 µM (inactive) | 7.13 µM (inactive) | 3.81 µM (inactive) | 8.75 µM (inactive) | 5.42 µM (inactive) | 0.294 µM (active) | 4.37 µM (inactive) | 5.58 µM (inactive)
O=C(/C=C/c1ccccc1)N1CCCCC1 | > 100 µM (inactive) | > 100 µM (inactive) | > 100 µM (inactive) | > 100 µM (inactive) | > 100 µM (inactive) | > 100 µM (inactive) | > 100 µM (inactive) | > 100 µM (inactive) | > 100 µM (inactive) | > 100 µM (inactive) | > 100 µM (inactive) | > 100 µM (inactive) | > 100 µM (inactive) | > 100 µM (inactive) | > 100 µM (inactive) | > 100 µM (inactive) | > 100 µM (inactive) | > 100 µM (inactive)
COc1cccc(N(CN2C(=O)CCC2C(=O)O)C(C)=O)c1 (stereo not drawn) | > 100 µM (inactive) | > 100 µM (inactive) | > 100 µM (inactive) | > 100 µM (inactive) | > 100 µM (inactive) | > 100 µM (inactive) | > 100 µM (inactive) | > 100 µM (inactive) | > 100 µM (inactive) | > 100 µM (inactive) | > 100 µM (inactive) | > 100 µM (inactive) | > 100 µM (inactive) | > 100 µM (inactive) | > 100 µM (inactive) | > 100 µM (inactive) | > 100 µM (inactive) | > 100 µM (inactive)
CCc1nc(N)nc(N)c1-c1ccc([N+](=O)[O-])c(NCc2ccccc2)c1 | 15.5 µM (inactive) | 15.2 µM (inactive) | 12.4 µM (inactive) | 13.8 µM (inactive) | 10.9 µM (inactive) | 17.3 µM (inactive) | 14.5 µM (inactive) | 12.4 µM (inactive) | 13.6 µM (inactive) | 18.7 µM (inactive) | 11.6 µM (inactive) | 14.9 µM (inactive) | 16.3 µM (inactive) | 21.6 µM (inactive) | 16.4 µM (inactive) | 6.47 µM (inactive) | 12.8 µM (inactive) | 15.7 µM (inactive)
CCOC(=O)c1ccc(NC(=O)Oc2ccc3c(C)cc(=O)oc3c2)cc1 | > 100 µM (inactive) | 23.7 µM (inactive) | 31.6 µM (inactive) | 29.6 µM (inactive) | 38.5 µM (inactive) | 20.9 µM (inactive) | 34.5 µM (inactive) | 28.5 µM (inactive) | 30.8 µM (inactive) | 32.7 µM (inactive) | 30.3 µM (inactive) | 37 µM (inactive) | > 100 µM (inactive) | 23 µM (inactive) | 29.7 µM (inactive) | 22.2 µM (inactive) | 32.9 µM (inactive) | 31.8 µM (inactive)
O=C1Oc2ccccc2C(=O)/C1=C\Nc1nc(-c2ccc(O)c(O)c2)cs1 | 11.9 µM (inactive) | 7.14 µM (inactive) | 7.18 µM (inactive) | 15.3 µM (inactive) | 7.76 µM (inactive) | 9.08 µM (inactive) | 3.55 µM (inactive) | 3.22 µM (inactive) | 3.94 µM (inactive) | 6.31 µM (inactive) | 1.53 µM (inactive) | 5.25 µM (inactive) | 5.46 µM (inactive) | 2.47 µM (inactive) | 11.7 µM (inactive) | 4.55 µM (inactive) | 5.01 µM (inactive) | 4.83 µM (inactive)
Cc1ccc(OCC2OC(n3cnc4c(Cl)nc(Cl)nc43)CC2Oc2ccc(C)cc2)cc1 (stereo not drawn) | 23.1 µM (inactive) | 16.5 µM (inactive) | 2.56 µM (inactive) | 1.9 µM (inactive) | 2.04 µM (inactive) | 1.7 µM (inactive) | 1.79 µM (inactive) | 1.85 µM (inactive) | 1.85 µM (inactive) | 3 µM (inactive) | 1.23 µM (inactive) | 1.96 µM (inactive) | 1.93 µM (inactive) | 2.24 µM (inactive) | 1.5 µM (inactive) | 2.14 µM (inactive) | 2.13 µM (inactive) | 1.98 µM (inactive)
OC1c2ccccc2[C@@H]2[C@H]1[C@@H](c1ccccc1)C1(Cc3ccccc3C1O)[C@H]2c1ccccc1 (stereo partly drawn) | 10.1 µM (inactive) | 1.91 µM (inactive) | 10.7 µM (inactive) | 6.93 µM (inactive) | 4.37 µM (inactive) | 2.77 µM (inactive) | 2.49 µM (inactive) | 4.75 µM (inactive) | 1.99 µM (inactive) | 5.28 µM (inactive) | 2.84 µM (inactive) | 6.7 µM (inactive) | 13.4 µM (inactive) | 7.06 µM (inactive) | 13.6 µM (inactive) | 6.71 µM (inactive) | 3.92 µM (inactive) | 6.14 µM (inactive)
Cc1cc(O)c(C=O)c2c1C(=O)Oc1c(CO)c(O)c3c(c1O2)C(O)OC3=O (stereo not drawn) [SLAZINIC ACID] | 58.3 µM (inactive) | > 100 µM (inactive) | > 100 µM (inactive) | 31.6 µM (inactive) | > 100 µM (inactive) | 36.7 µM (inactive) | 82.2 µM (inactive) | 61.4 µM (inactive) | 24.5 µM (inactive) | 38.8 µM (inactive) | 17.4 µM (inactive) | 34.4 µM (inactive) | > 100 µM (inactive) | 97.1 µM (inactive) | 21.4 µM (inactive) | 54.5 µM (inactive) | 60.5 µM (inactive) | 59 µM (inactive)
